We go through two compounds from patent US20140271644A1, “COMBINATION/ADJUVANT THERAPY FOR WT-1-POSITIVE DISEASE” (Memorial Sloan-Kettering Cancer Center, priority 2013, published 2014).

The test system of series [1] is BV173 human leukemia cells. The experiment in a line: Dasatinib plus ESKM in BV173 human leukemia xenograft NSG model. Type of series: in vivo, NSG mice. The settings on record: after 4 weeks of therapy; dasatinib 40 then 20 mg/kg daily IP, stopped on day 11; antibody 100 μg twice a week. As to the method:
(§1) In vivo efficacy of ESKM with TKIs was evaluated using NSG mice injected with HLA-A0201^+ leukemic cell line BV173. The protocol used for imatinib and dasatinib therapy in combination with ESKM consisted of injecting 3×10^6 cells per mouse via tail vein, luciferin imaging 6 days after injection to assess tumor engraftment, and initiation of therapy immediately after imaging on day 6. Luciferin imaging was used weekly to monitor tumor growth. The TKI is injected intraperitoneally daily (50 mg/kg for imatinib and 20-40 mg/kg for dasatinib.) The antibody is injected intravenously twice per week.

For series [2] the following is noted: mouse, in vivo.
Experimental: Three million BV173 human leukemia cells were injected IV by tail vein into NSG mice. […] Immediately after imaging on day 6, therapy was initiated with anti-WT-1 antibody ESKM 100 μg administered by intraperitoneal (IP) injection twice weekly. Dasatinib was also administered by IP injection at 40 mg/kg daily. […] Group A: No therapy; Group B: DMSO only (vehicle control); Group C: dasatinib treatment only; Group D: ESK treatment only; Group E: combination of both dasatinib daily and ESK twice weekly. […] The dose was decreased to 20 mg/kg. […] ESK antibody continued to be administered for the full 4 week treatment cycle. Tumor growth continued to be assessed by luminescence imaging weekly.
After 4 weeks of therapy, animals were imaged by fluorescent luciferin imaging, and the fluorescence was quantified using Living Image® software, quantifying mouse tumor burden.
The conditions of series [3]: cited from earlier work.
For series [4], the system named is BV173 cells. Put plainly: ADCC, chromium 51 release assay. Type of series: cell-based, human. The settings on record: imatinib 1 μM, 5 μM or 10 μM, various E:T ratios, fresh BV173 cells. As to the method:
ADCC is considered to be one of the major effector mechanisms of therapeutic mAb in humans. Evaluation of efficacy, therefore, begins with in vitro experiments measuring ADCC against BV173 cell line, derived from CML in blastic crisis. Fresh BV173 cells were used for ADCC target cells. WT-1 antibody or its isotype control human IgG1 was incubated at 750 ng/ml with target cells and fresh PBMCs at different effector:target (E:T) ratio for 6 hrs. Imatinib was added at concentrations of 0, 1, 5, and 10 μM. The supernatants were harvested and the cytotoxicity was measured by standard chromium 51 release assay.

Series [5] relates to BV173 human leukemia cells. Put plainly: Imatinib plus ESKM in BV173 human leukemia xenograft NSG model. Type of series: in vivo, NSG mice. The settings on record: after 5 weeks of therapy; imatinib 50 mg/kg daily IP; antibody 100 μg twice a week. As to the method:
as §1
Imatinib was also administered by IP injection at 50 mg/kg daily. Therapy continued for 5 weeks (10 doses of ESKM and 34 doses of imatinib per mouse). Group A: No therapy; Group B: imatinib treatment only; Group C: ESK treatment only; Group D: combination of both imatinib daily and ESK twice weekly. Tumor growth was assessed by luminescence imaging weekly, and clinical activity was assessed daily.
This allows for the quantification of mouse tumor burden. […] (FIG. 2)
In general terms: A xenograft is tissue or cells of one species grown in another, often human tumour cells in immunodeficient mice.

As for `Cc1nc(Nc2ncc(C(=O)Nc3c(C)cccc3Cl)s2)cc(N2CCN(CCO)CC2)n1` [dasatinib], the “Tumor burden by luciferin imaging” value in series [1] is “initially had clearance of tumor, but relapsed by week 4 of therapy”. Also, in series [2], the “Clinical condition of mice” value is “looked ill with significant weight loss” and the Discontinuation of therapy entry is given as “discontinued due to toxicity”. Further, the “Solubility in aqueous solution” value in series [3] is given as “not soluble in aqueous solution”.

On to `Cc1ccc(NC(=O)c2ccc(CN3CCN(C)CC3)cc2)cc1Nc1nccc(-c2cccnc2)n1` [imatinib], for which the “Effect of imatinib on ADCC mediated by WT-1 antibody” value in series [4] is given as “does not affect”. In series [5], the “Tumor burden by luciferin imaging” value is reported as “reduced tumor burden compared to control animals”.
